Source: the NIST ThermoML archive (doi:10.1021/je300405a)

Conditions: Liquid; for speed of sound: Pulse-echo method; for mass density: Vibrating tube method

CCCCCCCCCC(=O)OCC [ethyl decanoate]
Conditions	mass density [kg/m3]	speed of sound [m/s]
283.15 K, 101.3 kPa	–	1352.7
283.15 K, 10000 kPa	–	1398.5
283.15 K, 20000 kPa	–	1442.3
283.15 K, 30000 kPa	–	1483.7
283.15 K, 40000 kPa	–	1522.5
283.15 K, 50000 kPa	–	1558.3
283.15 K, 60000 kPa	–	1593.9
283.15 K, 70000 kPa	–	1627
283.15 K, 80000 kPa	–	1658.8
283.15 K, 90000 kPa	–	1689.9
283.15 K, 100000 kPa	–	1720.7
283.15 K, 110000 kPa	–	1753.7
283.15 K, 120000 kPa	–	1781.4
283.15 K, 130000 kPa	–	1808.5
283.15 K, 140000 kPa	–	1834.6
283.15 K, 150000 kPa	–	1860.3
283.15 K, 170000 kPa	–	1908.7
283.15 K, 190000 kPa	–	1951.8
283.15 K, 210000 kPa	–	1998
293.15 K, 101.3 kPa	863.82	–
293.15 K, 10000 kPa	870.79	–
293.15 K, 20000 kPa	877.08	–
293.15 K, 30000 kPa	882.99	–
293.15 K, 40000 kPa	888.58	–
293.15 K, 50000 kPa	893.79	–
293.15 K, 60000 kPa	898.83	–
293.15 K, 70000 kPa	903.51	–
293.15 K, 80000 kPa	907.69	–
293.15 K, 90000 kPa	912.24	–
293.15 K, 100000 kPa	916.37	–
303.15 K, 101.3 kPa	855.53	1275
303.15 K, 10000 kPa	863.17	1325.7
303.15 K, 20000 kPa	869.73	1373.2
303.15 K, 30000 kPa	875.81	1416.8
303.15 K, 40000 kPa	881.53	1458.3
303.15 K, 50000 kPa	887	1498
303.15 K, 60000 kPa	892.12	1535.5
303.15 K, 70000 kPa	897.09	1569.9
303.15 K, 80000 kPa	901.73	1603.2
303.15 K, 90000 kPa	906.27	1635.3
303.15 K, 100000 kPa	910.56	1666.2
303.15 K, 110000 kPa	–	1696.2
303.15 K, 120000 kPa	–	1724.8
303.15 K, 130000 kPa	–	1752.9
303.15 K, 140000 kPa	–	1779.2
303.15 K, 150000 kPa	–	1805.4
303.15 K, 170000 kPa	–	1854.6
303.15 K, 190000 kPa	–	1902.4
303.15 K, 210000 kPa	–	1947.7
313.15 K, 101.3 kPa	847.99	–
313.15 K, 10000 kPa	855.19	–
313.15 K, 20000 kPa	862	–
313.15 K, 30000 kPa	868.5	–
313.15 K, 40000 kPa	874.4	–
313.15 K, 50000 kPa	880	–
313.15 K, 60000 kPa	885.4	–
313.15 K, 70000 kPa	890.5	–
313.15 K, 80000 kPa	895.4	–
313.15 K, 90000 kPa	900	–
313.15 K, 100000 kPa	904.4	–
323.15 K, 101.3 kPa	839.75	1203.1
323.15 K, 10000 kPa	847.49	1258.2
323.15 K, 20000 kPa	854.78	1309.5
323.15 K, 30000 kPa	861.46	1355.9
323.15 K, 40000 kPa	867.52	1399.1
323.15 K, 50000 kPa	873.23	1439.4
323.15 K, 60000 kPa	879.07	1478.4
323.15 K, 70000 kPa	884.28	1515.1
323.15 K, 80000 kPa	889.28	1550.3
323.15 K, 90000 kPa	894.05	1583.7
323.15 K, 100000 kPa	898.41	1615.7
323.15 K, 110000 kPa	–	1645.8
323.15 K, 120000 kPa	–	1676.7
323.15 K, 130000 kPa	–	1705.7
323.15 K, 140000 kPa	–	1733.7
323.15 K, 150000 kPa	–	1760.3
323.15 K, 170000 kPa	–	1811.6
323.15 K, 190000 kPa	–	1861.2
323.15 K, 210000 kPa	–	1909.8
333.15 K, 101.3 kPa	831.19	–
333.15 K, 10000 kPa	839.38	–
333.15 K, 20000 kPa	846.93	–
333.15 K, 30000 kPa	853.95	–
333.15 K, 40000 kPa	860.39	–
333.15 K, 50000 kPa	866.43	–
333.15 K, 60000 kPa	872.17	–
333.15 K, 70000 kPa	877.53	–
333.15 K, 80000 kPa	882.56	–
333.15 K, 90000 kPa	887.46	–
333.15 K, 100000 kPa	892.18	–
343.15 K, 101.3 kPa	822.9	1133.3
343.15 K, 10000 kPa	831.45	1192.8
343.15 K, 20000 kPa	839.59	1247
343.15 K, 30000 kPa	846.94	1297.2
343.15 K, 40000 kPa	853.75	1343
343.15 K, 50000 kPa	860.03	1385.7
343.15 K, 60000 kPa	865.88	1425.7
343.15 K, 70000 kPa	871.46	1463.9
343.15 K, 80000 kPa	876.76	1500.3
343.15 K, 90000 kPa	881.86	1535.3
343.15 K, 100000 kPa	886.72	1568.4
343.15 K, 110000 kPa	–	1600.4
343.15 K, 120000 kPa	–	1631.5
343.15 K, 130000 kPa	–	1661.5
343.15 K, 140000 kPa	–	1690
343.15 K, 150000 kPa	–	1717.3
343.15 K, 170000 kPa	–	1769.7
343.15 K, 190000 kPa	–	1818.5
343.15 K, 210000 kPa	–	1865
353.15 K, 101.3 kPa	814.4	–
353.15 K, 10000 kPa	823.62	–
353.15 K, 20000 kPa	832.14	–
353.15 K, 30000 kPa	839.63	–
353.15 K, 40000 kPa	846.7	–
353.15 K, 50000 kPa	853.22	–
353.15 K, 60000 kPa	859.34	–
353.15 K, 70000 kPa	865.16	–
353.15 K, 80000 kPa	870.61	–
353.15 K, 90000 kPa	875.77	–
353.15 K, 100000 kPa	880.75	–
363.15 K, 101.3 kPa	806.38	1065.9
363.15 K, 10000 kPa	815.94	1130.1
363.15 K, 20000 kPa	824.71	1188.5
363.15 K, 30000 kPa	832.73	1241.2
363.15 K, 40000 kPa	840.08	1289.6
363.15 K, 50000 kPa	846.82	1334.7
363.15 K, 60000 kPa	853.11	1376.5
363.15 K, 70000 kPa	859.26	1415.4
363.15 K, 80000 kPa	864.82	1452.8
363.15 K, 90000 kPa	870.11	1488.9
363.15 K, 100000 kPa	875.14	1522.8
363.15 K, 110000 kPa	–	1556
363.15 K, 120000 kPa	–	1586.9
363.15 K, 130000 kPa	–	1617.1
363.15 K, 140000 kPa	–	1646.6
363.15 K, 150000 kPa	–	1675.1
363.15 K, 170000 kPa	–	1727.6
363.15 K, 190000 kPa	–	1777
363.15 K, 210000 kPa	–	1824.5
373.15 K, 101.3 kPa	797.32	–
373.15 K, 10000 kPa	807.87	–
373.15 K, 20000 kPa	817.14	–
373.15 K, 30000 kPa	825.49	–
373.15 K, 40000 kPa	833.44	–
373.15 K, 50000 kPa	840.48	–
373.15 K, 60000 kPa	847.06	–
373.15 K, 70000 kPa	853.14	–
373.15 K, 80000 kPa	859.2	–
373.15 K, 90000 kPa	864.65	–
373.15 K, 100000 kPa	869.76	–
383.15 K, 101.3 kPa	789.45	1001.3
383.15 K, 10000 kPa	800.55	1071.1
383.15 K, 20000 kPa	810.35	1132.9
383.15 K, 30000 kPa	819.06	1188.3
383.15 K, 40000 kPa	826.96	1239.3
383.15 K, 50000 kPa	834.28	1286.4
383.15 K, 60000 kPa	841.17	1329.7
383.15 K, 70000 kPa	847.62	1370.2
383.15 K, 80000 kPa	853.58	1408.3
383.15 K, 90000 kPa	859.32	1445
383.15 K, 100000 kPa	864.87	1480
383.15 K, 110000 kPa	–	1513.4
383.15 K, 120000 kPa	–	1545.8
383.15 K, 130000 kPa	–	1576.6
383.15 K, 140000 kPa	–	1606.2
383.15 K, 150000 kPa	–	1634.6
383.15 K, 170000 kPa	–	1687.7
383.15 K, 190000 kPa	–	1740.7
383.15 K, 210000 kPa	–	1786.8
393.15 K, 101.3 kPa	780.85	–
393.15 K, 10000 kPa	792.15	–
393.15 K, 20000 kPa	802.27	–
393.15 K, 30000 kPa	811.47	–
393.15 K, 40000 kPa	819.79	–
393.15 K, 50000 kPa	827.43	–
393.15 K, 60000 kPa	834.45	–
393.15 K, 70000 kPa	840.99	–
393.15 K, 80000 kPa	847.2	–
393.15 K, 90000 kPa	852.99	–
393.15 K, 100000 kPa	858.42	–
403.15 K, 101.3 kPa	–	937.8
403.15 K, 10000 kPa	–	1013.4
403.15 K, 20000 kPa	–	1080.3
403.15 K, 30000 kPa	–	1138.6
403.15 K, 40000 kPa	–	1191.3
403.15 K, 50000 kPa	–	1240.5
403.15 K, 60000 kPa	–	1285.9
403.15 K, 70000 kPa	–	1328.1
403.15 K, 80000 kPa	–	1367.6
403.15 K, 90000 kPa	–	1404.6
403.15 K, 100000 kPa	–	1439.8
403.15 K, 110000 kPa	–	1473.4
403.15 K, 120000 kPa	–	1506.4
403.15 K, 130000 kPa	–	1537.5
403.15 K, 140000 kPa	–	1567.3
403.15 K, 150000 kPa	–	1596.2
403.15 K, 170000 kPa	–	1650.9
403.15 K, 190000 kPa	–	1702.8
403.15 K, 210000 kPa	–	1751.8
